Assays:
Experiment in all cases: relative viability (nuclei count vs DMSO), 5 days (fraction); higher = more cells survive
JZL-184 + Pictilisib = compound: C1CN(CCC1C(C2=CC3=C(C=C2)OCO3)(C4=CC5=C(C=C4)OCO5)O)C(=O)OC6=CC=C(C=C6)[N+](=O)[O-] [JZL-184] + CS(=O)(=O)N1CCN(Cc2cc3nc(-c4cccc5[nH]ncc45)nc(N4CCOCC4)c3s2)CC1 [Pictilisib] (partner 1 µM)
Outline: (§1)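 For relative viability, nuclei counts in treated wells were divided by those in vehicle wells. Lung cancer cell lines had been pin-tool dosed in 1536-well plates the day after seeding and cultured for 5 days, then fixed and stained in one step (final 0.05% Triton X-100, 1% formaldehyde, 1 ug/ml Hoechst) and imaged at 4×. Doses were one drug alone or a fixed anchor-drug dose plus five library-drug doses (not always all listed) in √10 steps, and values are duplicate-plate medians.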

JZL-184 + Phenformin = compound: C1CN(CCC1C(C2=CC3=C(C=C2)OCO3)(C4=CC5=C(C=C4)OCO5)O)C(=O)OC6=CC=C(C=C6)[N+](=O)[O-] [JZL-184] + N=C(N)NC(=N)NCCc1ccccc1 [Phenformin] (partner 250 µM)
Outline: as §1

JZL-184 + Dasatinib = compound: C1CN(CCC1C(C2=CC3=C(C=C2)OCO3)(C4=CC5=C(C=C4)OCO5)O)C(=O)OC6=CC=C(C=C6)[N+](=O)[O-] [JZL-184] + Cc1nc(Nc2ncc(C(=O)Nc3c(C)cccc3Cl)s2)cc(N2CCN(CCO)CC2)n1 [Dasatinib] (partner 0.075 µM)
Outline: as §1

JZL-184 + Lapatinib = compound: C1CN(CCC1C(C2=CC3=C(C=C2)OCO3)(C4=CC5=C(C=C4)OCO5)O)C(=O)OC6=CC=C(C=C6)[N+](=O)[O-] [JZL-184] + CS(=O)(=O)CCNCc1ccc(-c2ccc3ncnc(Nc4ccc(OCc5cccc(F)c5)c(Cl)c4)c3c2)o1 [Lapatinib] (partner 2 µM)
Outline: as §1

JZL-184 + Alpelisib = compound: C1CN(CCC1C(C2=CC3=C(C=C2)OCO3)(C4=CC5=C(C=C4)OCO5)O)C(=O)OC6=CC=C(C=C6)[N+](=O)[O-] [JZL-184] + Cc1nc(NC(=O)N2CCC[C@H]2C(N)=O)sc1-c1ccnc(C(C)(C)C(F)(F)F)c1 [Alpelisib] (partner 2 µM)
Outline: as §1

| Cell Line | relative viability (JZL-184 + Pictilisib; first compound 0.04 µM) | relative viability (JZL-184 + Pictilisib; first compound 0.4 µM) | relative viability (JZL-184 + Pictilisib; first compound 1.265 µM) | relative viability (JZL-184 + Pictilisib; first compound 4 µM) | relative viability (JZL-184 + Phenformin; first compound 0.04 µM) | relative viability (JZL-184 + Phenformin; first compound 0.4 µM) | relative viability (JZL-184 + Phenformin; first compound 1.265 µM) | relative viability (JZL-184 + Phenformin; first compound 4 µM) | relative viability (JZL-184 + Dasatinib; first compound 0.04 µM) | relative viability (JZL-184 + Dasatinib; first compound 0.4 µM) | relative viability (JZL-184 + Dasatinib; first compound 1.265 µM) | relative viability (JZL-184 + Dasatinib; first compound 4 µM) | relative viability (JZL-184 + Lapatinib; first compound 0.04 µM) | relative viability (JZL-184 + Lapatinib; first compound 0.4 µM) | relative viability (JZL-184 + Lapatinib; first compound 1.265 µM) | relative viability (JZL-184 + Lapatinib; first compound 4 µM) | relative viability (JZL-184 + Alpelisib; first compound 0.04 µM) | relative viability (JZL-184 + Alpelisib; first compound 0.4 µM) | relative viability (JZL-184 + Alpelisib; first compound 1.265 µM) | relative viability (JZL-184 + Alpelisib; first compound 4 µM) |
| --- | --- | --- | --- | --- | --- | --- | --- | --- | --- | --- | --- | --- | --- | --- | --- | --- | --- | --- | --- | --- |
| HCC-78 | 0.204 | 0.188 | 0.248 | 0.2 | 0.63 | 0.611 | 0.754 | 0.752 | 0.276 | 0.359 | 0.391 | 0.301 | 0.634 | 0.787 | 0.755 | 0.302 | 0.325 | 0.317 | 0.375 | 0.315 |
| HCC-366 | 0.158 | 0.179 | 0.155 | 0.113 | 0.664 | 0.553 | 0.653 | 0.624 | 0.892 | 0.64 | 0.61 | 0.638 | 1.19 | 0.959 | 1.13 | 1.05 | 0.355 | 0.436 | 0.506 | 0.358 |
| HCC-827 | 0.915 | 0.908 | 1.01 | 1.06 | 0.424 | 0.376 | 0.424 | 0.379 | 0.328 | 0.31 | 0.34 | 0.305 | 0.228 | 0.196 | 0.234 | 0.221 | 0.724 | 0.927 | 0.981 | 0.952 |
| HOP-62 | 0.69 | 0.822 | 0.901 | 0.94 | 0.787 | 0.639 | 0.705 | 0.683 | 0.561 | 0.679 | 0.659 | 0.631 | 1.19 | 1 | 0.665 | 0.986 | 1.13 | 1.05 | 1.05 | 0.96 |
| IA-LM | 0.456 | 0.361 | 0.376 | 0.312 |  |  |  |  |  |  |  |  | 1.09 | 0.555 | 0.759 | 0.629 | 0.991 | 0.526 | 0.886 | 0.744 |
| LC-2-ad | 0.546 | 0.388 | 0.658 | 0.461 | 0.639 | 0.549 | 0.67 | 0.538 | 0.815 | 0.496 | 0.815 | 0.463 | 1.19 | 0.889 | 1.05 | 0.952 | 0.858 | 0.822 | 0.95 | 0.839 |
| LCLC-97TM1 | 0.259 |  | 0.237 | 0.201 | 0.396 | 0.431 | 0.449 | 0.435 | 0.903 | 0.778 | 0.911 | 0.763 | 1.08 |  | 1.01 | 0.858 | 0.242 |  | 0.252 | 0.295 |
| LCLC-103H | 0.574 | 0.49 | 0.654 | 0.615 | 0.338 | 0.296 | 0.345 | 0.323 | 0.45 | 0.557 | 0.489 | 0.392 |  |  |  |  | 1.03 | 0.867 | 1.05 | 0.981 |
| LK-2 | 0.511 | 0.6 | 0.632 | 0.645 | 0.374 | 0.676 | 0.678 | 0.416 | 0.379 | 0.364 | 0.295 | 0.325 | 1.24 | 0.878 | 1.04 | 0.972 | 1.55 | 1.14 | 1.06 | 1.06 |
| LOU-NH91 | 0.535 | 0.471 | 0.514 | 0.532 | 0.795 | 0.626 | 0.774 | 0.708 | 0.612 | 0.544 | 0.605 | 0.567 | 0.783 | 0.741 | 0.845 | 0.727 | 0.778 | 0.728 | 0.745 | 0.711 |
| LU99A | 0.353 | 0.315 | 0.329 | 0.313 | 0.86 | 0.763 | 0.999 | 0.968 | 0.717 | 0.443 | 0.525 | 0.541 | 1.21 | 0.966 | 1.22 | 0.963 | 0.587 | 0.535 | 0.538 | 0.486 |
| LXF-289 | 0.865 | 0.71 | 0.842 | 0.779 | 0.574 | 0.496 | 0.546 | 0.525 | 0.173 | 0.281 | 0.207 | 0.307 | 0.92 | 0.866 | 0.924 | 0.852 | 0.977 | 1.05 | 1.06 | 0.951 |
| NCI-H441 | 0.631 | 0.409 | 0.607 | 0.423 | 0.818 | 0.802 | 0.914 | 0.923 | 0.584 | 0.546 | 0.606 | 0.524 |  |  |  |  | 1.11 | 0.634 | 0.755 | 1.09 |
| NCI-H522 |  |  |  |  | 0.606 | 0.667 | 0.59 | 0.635 | 0.967 | 0.821 | 0.842 | 0.946 |  |  |  |  |  |  |  |  |
| NCI-H1650 | 0.734 | 0.53 | 0.741 | 0.696 | 0.427 | 0.411 | 0.524 | 0.357 | 0.306 | 0.297 | 0.388 | 0.296 | 0.821 | 0.735 | 0.939 | 0.718 |  |  |  |  |
| NCI-H1703 | 0.265 | 0.216 | 0.288 | 0.246 |  |  |  |  |  |  |  |  | 1.44 | 0.936 | 1.4 | 0.983 | 0.335 | 0.295 | 0.389 | 0.294 |
| NCI-H2342 |  |  |  |  | 0.598 | 0.534 | 0.635 | 0.697 | 0.317 | 0.293 | 0.282 | 0.368 |  |  |  |  |  |  |  |  |
| SW 900 |  |  |  |  | 0.595 | 0.506 | 0.555 | 0.748 | 0.543 | 0.619 | 0.661 | 0.509 |  |  |  |  |  |  |  |  |
